Test results taken from patent US9635859B2, “Pesticidal compositions and processes related thereto” (Dow AgroSciences LLC, priority 2012, dated 2017).

How the values were obtained:
[1] = tested on: Corn Earworm (Helicoverpa zea); assay: Bioassays on CEW, 128-well diet tray assay; format: in vivo; conditions: percent mortality, second instar larvae, 50 μg/cm^2 on artificial diet, five to seven days, 25° C.; Table 3
Protocol: (§1) Certain molecules disclosed in this document were tested against BAW and CEW and CL using procedures described in the following examples. In the reporting of the results, the “BAW & CEW & CL Rating Table” was used (See Table Section).
Bioassays on CEW (Helicoverpa zea)
Bioassays on CEW were conducted using a 128-well diet tray assay. one to five second instar CEW larvae were placed in each well (3 mL) of the diet tray that had been previously filled with 1 mL of artificial diet to which 50 μg/cm^2 of the test compound (dissolved in 50 μL of 90:10 acetone-water mixture) had been applied (to each of eight wells) and then allowed to dry. Trays were covered with a clear self-adhesive cover, and held at 25° C., 14:10 light-dark for five to seven days. Percent mortality was recorded for the larvae in each well; activity in the eight wells was then averaged. The results are indicated in the table entitled “Table 3: Assay Results” (See Table Section).

[2] = tested on: Cabbage Looper (Trichoplusia ni); assay: Bioassays on CL, 128-well diet tray assay; format: in vivo; conditions: percent mortality, second instar larvae, 50 μg/cm^2 on artificial diet, five to seven days, 25° C.; Table 3A
Protocol: as §1
Bioassays on CL (Trichoplusia ni)
Bioassays on CL were conducted using a 128-well diet tray assay. One to five second instar CL larvae were placed in each well (3 mL) of the diet tray that had been previously filled with 1 mL of artificial diet to which 50 μg/cm^2 of the test compound (dissolved in 50 μL of 90:10 acetone-water mixture) had been applied (to each of eight wells) and then allowed to dry. Trays were covered with a clear self-adhesive cover, and held at 25° C., 14:10 light-dark for five to seven days. Percent mortality was recorded for the larvae in each well; activity in the eight wells was then averaged. The results are indicated in the table entitled “Table 3A: Assay Results” (See Table Section).

Structure (SMILES) | CEW Rating [1] | CL Rating [2]
O=C(NCc1ccc(/C=C/C(c2cc(Cl)c(Cl)c(Cl)c2)C(F)(F)F)cc1Cl)Oc1ccccc1Cl (centres unmarked) [CC40] | A (50-100) | –
O=C(NCC(F)(F)F)NNC(=O)c1ccc(/C=C/C(c2cc(Cl)c(Cl)c(Cl)c2)C(F)(F)F)cc1Br (centres unmarked) [Compound F7, (E)-2-(2-Bromo-4-(4,4,4-trifluoro-3-(3,4,5-trichlorophenyl)but-1-en-1-yl)benzoyl)-N-(2,2,2-trifluoroethyl)hydrazinecarboxamide] | – | A (50-100)
